This note sets out measurements from patent publication US8367710B2, “Bicyclo-substituted pyrazolon azo derivatives, preparation process and pharmaceutical use thereof” (Jiangsu Hengrui Medicine Co. Ltd., priority 2008, dated 2013).

The target in one data set is T1, human TPO receptor (Homo sapiens, UniProt P40238).
T1 sequence (P40238 26-635): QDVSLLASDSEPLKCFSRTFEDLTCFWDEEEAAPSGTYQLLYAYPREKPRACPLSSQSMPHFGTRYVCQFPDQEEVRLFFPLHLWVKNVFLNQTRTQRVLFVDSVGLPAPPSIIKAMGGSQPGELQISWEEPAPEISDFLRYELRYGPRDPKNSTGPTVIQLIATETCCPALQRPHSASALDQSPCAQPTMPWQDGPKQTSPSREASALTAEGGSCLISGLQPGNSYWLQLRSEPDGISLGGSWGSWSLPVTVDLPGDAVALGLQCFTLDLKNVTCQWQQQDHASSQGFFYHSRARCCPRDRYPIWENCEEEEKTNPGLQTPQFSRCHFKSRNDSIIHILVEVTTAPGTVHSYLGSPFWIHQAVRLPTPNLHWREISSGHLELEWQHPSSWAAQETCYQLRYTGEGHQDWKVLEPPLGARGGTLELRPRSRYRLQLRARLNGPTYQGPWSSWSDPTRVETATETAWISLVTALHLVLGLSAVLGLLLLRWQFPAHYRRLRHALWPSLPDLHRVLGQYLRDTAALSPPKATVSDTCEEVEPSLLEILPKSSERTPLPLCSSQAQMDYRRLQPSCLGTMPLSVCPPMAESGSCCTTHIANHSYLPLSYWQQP
Put plainly: pro-proliferation effect on BAF3-TPOR cell (CCK-8). The note with it: BAF3-TPOR cells, proliferation relative to rhTPO positive control. In kind it is cell-based, mouse. The method, then:
The sequence of primers which contains multi-sites mutation was designed as follows: […]
The E. coli DH5α competent cell was transformed with mutated plasmid, and positive colonies were picked up through ampicillin selection.
(2) BAF3-TPOR stable transfected cell line: the following method was used to construct the BaF3 cell which stably over-expressed functional human TPO receptor. […] The stable transfected cells BAF3-TPOR were selected with G418 (Gibco, US), then incubated with RPMI1640 medium plus 10% FBS (Gibco, US), […] G418, 5 ng/mL, rmIL-3 (Chemicon, US).
(1) Washing cells by centrifugation: a suitable amount of cell suspension was centrifuged at 1000 rpm for 5 minutes, and the supernatant was discarded. 10 mL of cell culture media without containing IL-3 was added. Then the resulting cell suspension was centrifuged at 1000 rpm for 5 minutes, and the supernatant was discarded.
(2) 1 mL of cell culture media without containing IL-3 was added to beat upon them to equality, and the number of a suitable amount of cell suspension was counted after dilution.
(3) According to the result of the cell counting, a cell suspension in a concentration of 100,000 cell/mL was prepared.
(4) 100 μL of cell suspension was transferred to each well of 96-well culture plate, and there were 3 parallel wells, that is, there were a blank control group (B), a negative control group (N), a positive control group of TPO (P) and a test compound group (S).
(5) The test compound was dissolved in DMSO to prepare a 10 mM stock solution, and then the solution was diluted with RPMI 1640 medium into a series of test samples at different concentration: 30 μM, 10 μM, 3 μM, 1 μM, 0.3 μM, 0.1 μM, 0.03 μM, 0.01 μM, 0.003 μM, 0.001 μM.
(6) 10 μL of test compound solution was transferred to each well respectively; 1 μL of rhTPO (10 μg/mL) was added to positive control well.
(7) The plates were incubated in an incubator at 5% CO2 and 37° C. for 24 hours.
(9) OD value was detected at 450 nm by VICTOR3 (Perkin Elmer 1420-120) plate reader.
(1) The proliferation rate was calculated as follows: Rate=[(S−B)/(P−B)]*100%
S: OD value of wells which contains test compound.
B: OD value of blank control wells
P: OD value of positive control wells
(2) The EC50 value was calculated by Origin 7.0 software.

A short description of data set [1]: Pharmacokinetics assay in rats after intragastric administration. The note with it: both sexes, Sprague-Dawley, rat, plasma, po, SD rats, 5 mg/Kg; for Vd/F: read-out: Apparent Distribution Volume Vz/F; for CL/F: read-out: Clearance CL/F (converted); for AUC: read-out: Curve Area AUC; for half-life: read-out: Half-Life t½ (converted); for MRT: read-out: Mean Residence Time MRT; for Cmax: read-out: Plasma Conc. Cmax. In kind it is in vivo. The method, then:
Test Example 1: Pharmacokinetics assay of the compounds of the present disclosure
The pharmacokinetics of the compounds of the present disclosure was studied and evaluated in rats.
The test compound was diluted with 1% sodium carboxymethyl cellulose to 0.5 mg/mL (calculated as the free acid form) of suspension before use.
24 healthy adult SD rats, male and female in half, were divided into […]. After an overnight fast, the rats were administered intragastrically at a dose of 5.0 mg/kg (calculated as the free acid form), at a volume of 10 mL/kg.
24 healthy adult SD rats, male and female in half, were administered intragastrically at a dose of 5.0 mg/kg after an overnight fast. Blood samples (0.2 mL) were taken from eye socket at pre administration and at 0.5, 1.0, 2.0, 3.0, 4.0, 5.0, 6.0, 8.0, 11.0, 14.0, 24.0, 36.0 and 48.0 hours post administration, which were stored in heparinized tubes and centrifuged for 10 minutes at 3,500 rpm. The plasma samples were stored at −20° C. until analysis.
50 μL of rat plasma, obtained at various time points after administration, 20 μL of internal standard solution and 20 μL of a solvent mixture of methanol and water (80:20, v/v) were mixed well, and then 150 μL of methanol was added to result in protein precipitation. Then the mixture was mixed for 1 minute using a vortexer and centrifuged for 10 minutes at 13,000 rpm. 20 μL of the supernatant was analyzed by LC/MS/MS.
50 μL of blank plasma was spiked with a series of standard solutions to produce final concentrations of 1.0, 5.0, 25.0, 50.0, 100.0, 250.0, 500.0 ng/mL, followed by addition of 20 μL of internal standard solution, which was treated according to plasma sample pretreatment protocol. A typical calibration curve equation was obtained with plasma concentration as the abscissa and the chromatographic peak area ratio of sample to internal standard as the ordinate, using weighted least squares method (w=1/x^2) for linear regression.
The compartmental model of pharmacokinetics was fitted for the test compounds and the major pharmacokinetic parameters were calculated in which Cmax and tmax were the actually measured values.

As usually defined, the EC50 is the concentration that produces a half-maximal response. The low end stands for an effect from little substance, the high end for a need for much substance. The AUC is the area under the concentration-time curve, a measure of exposure. One may read the half-life as the time in which the quantity being followed falls by half. One may read the MRT as the average time that molecules of a dose stay in the body. Usually Cmax stands for the peak of the concentration-time curve. Turning to `CC1=NN(c2ccc(C)c(C)c2)C(=O)/C1=N\Nc1cccc(-c2cccc(C(=O)O)c2)c1O` [Eltrombopag, eltrombopag, reference compound], the midpoint of the response at human TPO receptor, the EC50, lay at 299 nM. For the same molecule, in data set [1], the Vd/F was found to be 1.53 ± 0.26 L/kg, the CL/F is 3 mL/min/kg, the exposure (AUC) amounted to 29000 ± 3820 ng·h/mL and the half-life is 6.11 ± 1.04 h. For the same molecule, in data set [1], the MRT was determined as 4.63 ± 1.03 h and the Cmax is 8470 ± 950 ng/mL.
Turning to `CC1=NN(c2ccc3c(c2)CC(C)(C)C3)C(=O)/C1=N\Nc1cccc(-c2cccc(C(=O)O)c2)c1O` [Example 56, 3′-{N′-[1-(2,2-Dimethyl-indan-5-yl)-3-methyl-5-oxo-1,5-dihydro-pyrazol-4-ylidene]-hydrazino}-2′-hydroxy-biphenyl-3-carboxylic acid], the response on human TPO receptor was half-maximal at 60 nM (EC50).
For the molecule `CC1=NN(c2ccc3c(c2)CCC3)C(=O)/C1=N\Nc1cc(C)cc(-c2cccc(C(=O)O)c2)c1O` [Example 29, 2′-Hydroxy-3′-[N′-(1-indan-5-yl-3-methyl-5-oxo-1,5-dihydro-pyrazol-4-ylidene)-hydrazino]-5′-methyl-biphenyl-3-carboxylic acid], at human TPO receptor, the midpoint of the response, the EC50, lay at 124 nM. In addition, in data set [1], the Vd/F was 0.77 ± 0.39 L/kg, the CL/F is 2.33 mL/min/kg, the AUC was 44800 ± 19400 ng·h/mL and the half-life was 4.01 ± 0.63 h. In data set [1], the MRT amounted to 4.29 ± 0.8 h and the Cmax was found to be 13000 ± 5960 ng/mL.
`CC1=NN(c2ccc3c(c2)C(C)(C)CC3(C)C)C(=O)/C1=N\Nc1cc(C)cc(-c2cccc(C(=O)O)c2)c1O` [Example 20, 2′-Hydroxy-5′-methyl-3′-{N′-[3-methyl-5-oxo-1-(1,1,3,3-tetramethyl-indan-5-yl)-1,5-dihydro-pyrazol-4-ylidene]-hydrazino}-biphenyl-3-carboxylic acid] returned an EC50 at human TPO receptor of 89 nM.
At human TPO receptor, `CC1=NN(c2ccc3c(c2)C(C)(C)CC3)C(=O)/C1=N\Nc1cc(C)cc(-c2cccc(C(=O)O)c2)c1O` [Example 16, 3′-{N′-[1-(3,3-Dimethyl-indan-5-yl)-3-methyl-5-oxo-1,5-dihydro-pyrazol-4-ylidene]-hydrazino}-2′-hydroxy-5′-methyl-biphenyl-3-carboxylic acid] returned an EC50 of 160 nM.
In the case of `CC1=NN(c2ccc3c(c2)CCCC3)C(=O)/C1=N\Nc1cccc(-c2csc(C(=O)O)c2)c1O` [Example 51, 4-(2-Hydroxy-3-{N′-[3-methyl-5-oxo-1-(5,6,7,8-tetrahydro-naphthalen-2-yl)-1,5-dihydro-pyrazol-4-ylidene]-hydrazino}-phenyl)-thiophene-2-carboxylic acid], the EC50 at human TPO receptor came out at 55 nM.
In the case of `COC(=O)c1ccc(-c2cccc(N/N=C3\C(=O)N(c4ccc5c(c4)CCC5)N=C3C)c2O)o1` [Example 55, 5-{2-hydroxy-3-[N′-(1-indan-5-yl-3-methyl-5-oxo-1,5-dihydro-pyrazol-4-ylidene)-hydrazino]-phenyl}-furan-2-carboxylic acid methyl ester], at human TPO receptor, a half-maximal response (EC50) required 71 nM.
On the same count and under the same terms, for `COC(=O)c1ccc(-c2cccc(N/N=C3\C(=O)N(c4ccc5c(c4)CCCC5)N=C3C)c2O)o1` [Example 54, 5-(2-Hydroxy-3-{N′-[3-methyl-5-oxo-1-(5,6,7,8-tetrahydro-naphthalen-2-yl)-1,5-dihydro-pyrazol-4-ylidene]-hydrazino}-phenyl)-furan-2-carboxylic acid methyl ester] the value was 133 nM.
Turning to `CC1=NN(c2ccc3c(c2)CCCC3)C(=O)/C1=N\Nc1cc(F)cc(-c2cccc(C(=O)O)c2)c1O` [Example 4, 5′-Fluoro-2′-hydroxy-3′-{N′-[3-methyl-5-oxo-1-(5,6,7,8-tetrahydro-naphthalen-2-yl)-1,5-dihydro-pyrazol-4-ylidene]-hydrazino}-biphenyl-3-carboxylic acid], the EC50 at human TPO receptor was determined as 283 nM.
At human TPO receptor, `CC1=NN(c2ccc3c(c2)C(C)(C)CC3(C)C)C(=O)/C1=N\Nc1cccc(-c2ccc(C(=O)O)o2)c1O` [Example 25, 5-(2-Hydroxy-3-{N′-[3-methyl-5-oxo-1-(1,1,3,3-tetramethyl-indan-5-yl)-1,5-dihydro-pyrazol-4-ylidene]-hydrazino}-phenyl)-furan-2-carboxylic acid] registered an EC50 of 60 nM.
